{"source": "patent US12215123B2", "about": "“Cordycepin-based derivatized compound with anti-tumor effect” (NANJING TECH UNIVERSITY, priority 2022, dated 2025)", "assay_type_in_all_cases": "in vivo, C57BL/6j nude mice", "key": {"[1]": {"test_system": "Hep-1-6 liver cancer cells", "test": "Mouse transplanted liver cancer model", "details": "Hep-1-6 transplanted mice, intragastric 500 ug/time/animal every other day, 14 days; blank 900 mm^3", "procedure": "(§1) The feeding of the mouse model in the drug evaluation follows that: mice are fed and treated in a laminar flow cabinet, with 5 nude mice in each cage, drinking water and feedstuffs are added once every 3 days, and paddings are replaced once a week; a number of mice kept in each cage is no more than 5, the mice in separate cages are kept in groups as far as possible, and the mice should not be kept in a single cage; the animal management must conform to the relevant national standards on animal feeding management, and the behavioral needs of animals should be concerned at the same time to avoid unnecessary stress; the normal physiological and behavioral needs of animals, such as defecation, urination, constant body temperature maintenance, normal activities, posture adjustment and reproduction are met; good ventilation and dry animals are kept; the animals can access to drinking water and food at will, and supplementation, replacement and cleaning operations are easily carried out; a solid and safe environment is provided to avoid accidents of animals, such as escaping or limb trapping in a gap; the animals are avoided from being damaged by sharp edges or protrusions; and the animals are not disturbed during observation.\nA mouse transplanted liver cancer model was established and a drug was evaluated. […]"}, "IDB ovarian cancer cells": {"test_system": "IDB ovarian cancer cells", "test": "Mouse transplanted ovarian cancer model", "details": "ovarian cancer transplanted mice, 15 days, 500 ug/time/animal intragastric", "procedure": "as §1\nA mouse transplanted ovarian cancer model was established and a drug was evaluated. […]"}, "[2]": {"test_system": "pancreatic cancer Pan02-luc cells", "test": "Mouse transplanted pancreatic cancer model, survival", "details": "intragastric 500 ug/time/animal every day for 24 days, control 41 days", "procedure": "as §1, with “observation. […]” for “observation.”"}, "B16-F10 melanoma cells": {"test_system": "B16-F10 melanoma cells", "test": "Mouse transplanted melanoma model", "details": "B16-F10 transplanted mice, intragastric 500 ug/time/animal every other day, 24 days; blank 1760 mm^3", "procedure": "as §1\nA mouse transplanted melanoma model was established and a drug was evaluated. 2.5×10^5 B16-F10 melanoma cells were suspended in 100 μL of PBS to be inoculated into an outer side of thigh of left lower limb of C57BL/6j nude mice. One week later, when the transplanted tumor reached about 100 mm^3, the mice were randomly divided into ten groups, with 10 mice in each group, comprising a blank control group, a cordycepin group, a compound 13 group, a compound 14 group, a compound 17 group, a compound 19 group, a compound 22 group, a compound 26 group, a compound 29 group and a compound 34 group respectively. The blank control group was intragastrically administrated with a nutritional agent such as a corn steep liquor and DMSO as a solvent control every day for 24 consecutive days, and the compound groups were intragastrically administrated with corresponding compounds (500 ug/time/animal in all cases) every other day for 24 consecutive days. […] The mice were killed after the experiment, blood and corresponding tissue samples were collected, tumor bodies were immediately photographed and weighed, and some tumor tissues were fixed in a formalin solution to be further detected. Two vertical diameters (length and width) of the transplanted tumor were measured with a caliper every two days to calculate a size of the transplanted tumor, and a tumor value was calculated according to a formula: tumor volume (mm^3)=[…]."}}}
{"compound": "CC(C)OC(=O)C(C)NP(=O)(COC[C@@H]1CC(O)[C@H](n2cnc3c(NC(=O)c4ccncc4)ncnc32)O1)Oc1ccccc1", "note": "(some centres unmarked) [Compound 24, isopropyl((((4-hydroxy-5-(6-(isonicotinamide)-9H-purin-9-yl)tetrahydrofuran-2-yl)methoxy)methyl)(phenoxy)phosphoryl)alanine ester]", "values": [{"measurement": "tumor volume", "setting": "[1]", "value": "< 100", "unit": "mm^3"}, {"measurement": "tumor size reduced by (times) versus control", "setting": "IDB ovarian cancer cells", "value": "about 2 times"}, {"measurement": "survival time of the tumor-bearing mice (median survival time)", "setting": "[2]", "value": 76, "unit": "days"}]}
{"compound": "Nc1ncnc2c1ncn2[C@@H]1O[C@H](CO)C[C@H]1O", "note": "[Cordycepin, 3′-deoxyadenosine]", "values": [{"measurement": "tumor volume", "setting": "B16-F10 melanoma cells", "value": 600, "unit": "mm^3"}, {"measurement": "survival time of the tumor-bearing mice (median survival time)", "setting": "[2]", "value": 52, "unit": "days"}]}
